Target: T1, recombinant human (rh) KLK5 (Homo sapiens, UniProt Q9Y337)
T1 construct: purchased R&D Systems 1108-SE
T1 sequence (Q9Y337 23-293): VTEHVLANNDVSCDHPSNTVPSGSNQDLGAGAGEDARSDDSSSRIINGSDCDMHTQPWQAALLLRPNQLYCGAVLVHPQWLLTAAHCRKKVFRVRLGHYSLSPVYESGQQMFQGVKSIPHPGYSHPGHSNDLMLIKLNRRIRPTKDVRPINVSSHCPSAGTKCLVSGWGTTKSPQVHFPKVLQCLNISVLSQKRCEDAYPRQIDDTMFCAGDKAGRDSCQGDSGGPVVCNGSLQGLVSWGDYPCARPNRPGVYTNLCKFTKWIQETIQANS
Assay: Enzymatic activity of KLK5 (fluorogenic peptide substrate Boc-V-P-R-AMC)
Type: biochemical
Conditions: FIG. 1; for KLK5 activity compared to that of salicylic acid: rhKLK5, rate of enzyme activity relative to salicylic acid
Text: In the stratum corneum, skin's outermost layer, cell-to-cell cohesion depends primarily on proteins known as the corneodesmosomes. During skin remodeling and renewal dead cells are shed from the skin surface by the action of native proteases that break down the corneodesmosomes. […] Hypothetically, up-regulation of the activities of these proteases using different active candidates could be utilized to increase the rate of shedding of dead skin, thus providing a natural means for skin exfoliation. To this end, the enzymatic activity of a member of the KLK family, recombinant human (rh) KLK5, was monitored following pre-incubation with actives and measuring the rate of peptide bond cleavage of a synthetic substrate.
Enzymatic activity of KLK5 was measured by incubating recombinant human (rh) KLK5 protease (R&D Systems, Cat No. 1108-SE) with a specific fluorogenic peptide substrate Boc-V-P-R-AMC (R& D Systems, Cat No. ES011). The substrate is conjugated to a quenched fluorescent group. Upon cleavage of the adjacent peptide bond, the fluorescent signal is released, resulting in a measureable emission at […] when excited at 340 nm wavelength. Increase in fluorescence reading indicates an increase in rhKLK5 activity. The test compounds were reacted with recombinant rhKLK5 protease for 60 seconds followed by addition of Boc-V-P-R-AMC Fluorogenic Peptide Substrate. After 60 seconds of incubation, fluorescence was measured at 340 nm (Excitation wavelength) and 485 nm (Emission wavelength) every 1 minute for 7 minutes. Rate (kinetics) of enzyme activity was calculated as follows: Rate of enzyme activity=Change of fluorescent reading (after background correction)/Change of reaction time (min). Percent change of activity due to a test compound was calculated by comparing rate of enzyme activity in the presence of the test compound to that of a control without the test compound and statistical significance was calculated using a t-test. Additionally, the rate of activity of the compounds was compared to that of salicylic acid.

percentage of KLK5 activity relative to salicylic acid (salicylic acid as the benchmark) | Compound | KLK5 activity compared to that of salicylic acid
 | O=C(O)c1ccc2ccccc2c1O [1-hydroxy-2-napthoic acid] | substantially less KLK5 activity than salicylic acid
 | O=C(O)c1cc2ccccc2cc1O [3-hydroxy-2-napthoic acid] | potent stimulator of KLK5, as it is increased beyond salicylic acid
 | O=C(O)c1c(O)ccc2ccccc12 [2-hydroxy-1-napthoic acid] | substantially less KLK5 activity than salicylic acid
100% | O=C(O)c1ccccc1O [salicylic acid] | 
